# According to patent US7517874B2 (priority 2007, dated 2009):
# Like-named read-outs stand apart in the source and are kept apart here.
# Columns and labels:
# [1] = molecular target: human CB1 receptor (hCB1) (Homo sapiens, UniProt P21554); experiment: cell-based; type: cell-based; details: for +/− HCB1: agonist or inverse agonist at hCB1
# Summary of the method: (§1)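 First, cells in IBMX-containing HEPES-buffered HBSS are raised to elevated cAMP with 2-8 μM NKH-477 for 30 min. Data are normalised to the forskolin and forskolin + 1 μM CP55,940 controls.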
# rat CB2 receptor (rCB2) = molecular target: T1, rat CB2 receptor (rCB2) (Rattus norvegicus, UniProt Q9QZN9); experiment: cell-based; type: cell-based; details: for +/− RCB2: agonist or inverse agonist at rCB2
# T1 sequence (Q9QZN9 1-360): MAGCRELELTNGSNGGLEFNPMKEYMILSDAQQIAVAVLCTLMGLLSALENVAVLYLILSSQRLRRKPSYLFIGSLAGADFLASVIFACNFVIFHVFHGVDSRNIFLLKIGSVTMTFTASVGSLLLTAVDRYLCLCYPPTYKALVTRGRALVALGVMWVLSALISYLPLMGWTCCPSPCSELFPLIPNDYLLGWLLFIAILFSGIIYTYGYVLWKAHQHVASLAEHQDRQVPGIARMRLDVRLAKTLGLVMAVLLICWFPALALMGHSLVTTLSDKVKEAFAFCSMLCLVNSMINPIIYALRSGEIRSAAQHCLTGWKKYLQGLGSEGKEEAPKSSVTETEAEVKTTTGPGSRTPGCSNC
# Summary of the method: as §1
# Sequence of human CB1 receptor (hCB1) (P21554 whole entry): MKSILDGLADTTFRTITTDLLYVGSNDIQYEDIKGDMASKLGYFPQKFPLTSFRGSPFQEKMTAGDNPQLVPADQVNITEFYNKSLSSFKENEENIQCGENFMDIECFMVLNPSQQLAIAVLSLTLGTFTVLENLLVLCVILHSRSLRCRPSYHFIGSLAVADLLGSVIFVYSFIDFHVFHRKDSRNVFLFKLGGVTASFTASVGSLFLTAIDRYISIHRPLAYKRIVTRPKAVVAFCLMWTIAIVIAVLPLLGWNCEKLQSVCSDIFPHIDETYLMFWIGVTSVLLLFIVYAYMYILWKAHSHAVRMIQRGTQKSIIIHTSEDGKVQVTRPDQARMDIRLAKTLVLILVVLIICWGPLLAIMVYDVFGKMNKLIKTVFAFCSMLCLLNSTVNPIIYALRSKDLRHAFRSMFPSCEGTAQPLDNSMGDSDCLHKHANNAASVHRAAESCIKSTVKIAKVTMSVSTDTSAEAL
Compound,+/− HCB1 [1],+/− RCB2 (rat CB2 receptor (rCB2)),EC50 [1] [nM],other results
"CN1CCCn2c(-c3ccc(F)cc3F)nc(C(=O)N[C@@H](CC(C)(C)C)C(N)=O)c2C1 [Compound 589, (S)-N-(1-amino-4,4-dimethyl-1-oxopentan-2-yl)-3-(2,4-difluorophenyl)-8-methyl-6,7,8,9-tetrahydro-5H-imidazo[1,5-a][1,4]diazepine-1-carboxamide]",+,+,,
"CN1CCCn2c(-c3cc(F)c(F)cc3F)nc(C(=O)N[C@@H](CC(C)(C)C)C(N)=O)c2C1 [Compound 590, (S)-N-(1-amino-4,4-dimethyl-1-oxopentan-2-yl)-8-methyl-3-(2,4,5-trifluorophenyl)-6,7,8,9-tetrahydro-5H-imidazo[1,5-a][1,4]diazepine-1-carboxamide]",+,+,,
"CN1CCCn2c(-c3cc(Cl)c(F)cc3F)nc(C(=O)N[C@@H](CC(C)(C)C)C(N)=O)c2C1 [Compound 591, (S)-N-(1-amino-4,4-dimethyl-1-oxopentan-2-yl)-3-(5-chloro-2,4-difluorophenyl)-8-methyl-6,7,8,9-tetrahydro-5H-imidazo[1,5-a][1,4]diazepine-1-carboxamide]",+,+,,
"CNC(=O)[C@H](Cc1cscn1)NC(=O)c1nc(-c2cc(F)c(F)cc2F)n2c1CN(C)CCC2 [Compound 592, (S)-8-methyl-N-(1-(methylamino)-1-oxo-3-(thiazol-4-yl)propan-2-yl)-3-(2,4,5-trifluorophenyl)-6,7,8,9-tetrahydro-5H-imidazo[1,5-a][1,4]diazepine-1-carboxamide]",,,> 10000,EC50 (rat CB2 receptor (rCB2)): > 10000 nM
"CNC(=O)[C@H](Cc1cscn1)NC(=O)c1nc(-c2cc(Cl)c(F)cc2F)n2c1CN(C)CCC2 [Compound 593, (S)-3-(5-chloro-2,4-difluorophenyl)-8-methyl-N-(1-(methylamino)-1-oxo-3-(thiazol-4-yl)propan-2-yl)-6,7,8,9-tetrahydro-5H-imidazo[1,5-a][1,4]diazepine-1-carboxamide]",+,+,,
"CNC(=O)[C@@H](NC(=O)c1nc(C2=CCOCC2)n2c1CN(C)CCC2)C(C)(C)C [Compound 594, (S)-3-(3,6-dihydro-2H-pyran-4-yl)-N-(3,3-dimethyl-1-(methylamino)-1-oxobutan-2-yl)-8-methyl-6,7,8,9-tetrahydro-5H-imidazo[1,5-a][1,4]diazepine-1-carboxamide]",+,+,,
"CN1CCCn2c(-c3ccccc3)nc(C(=O)Nc3cc(C(C)(C)C)on3)c2C1 [Compound 595, N-(5-tert-butylisoxazol-3-yl)-8-methyl-3-phenyl-6,7,8,9-tetrahydro-5H-imidazo[1,5-a][1,4]diazepine-1-carboxamide]",,−,> 10000,
"CN1CCCn2c(-c3ccccc3)nc(C(=O)Nc3nc(C(C)(C)C)cs3)c2C1 [Compound 596, N-(4-tert-butylthiazol-2-yl)-8-methyl-3-phenyl-6,7,8,9-tetrahydro-5H-imidazo[1,5-a][1,4]diazepine-1-carboxamide]",,,,"EC50 ([1]; groups >100 nM-10 μM and >10 μM, cAMP, CHO-K1 hCB1, read-out: EC50 HCB1): > 10000 nM; EC50 (rat CB2 receptor (rCB2); groups >100 nM-10 μM and >10 μM, cAMP, CHO-K1 rCB2, read-out: EC50 RCB2): > 10000 nM"
"CNC(=O)[C@@H](NC(=O)c1nc(Cl)n2c1CNCCC2)C(C)(C)C [Compound 597, (S)-3-chloro-N-(3,3-dimethyl-1-(methylamino)-1-oxobutan-2-yl)-6,7,8,9-tetrahydro-5H-imidazo[1,5-a][1,4]diazepine-1-carboxamide]",,+,> 10000,
"CNC(=O)[C@@H](NC(=O)c1nc(Cl)n2c1CN(C)CCC2)C(C)(C)C [Compound 598, (S)-3-chloro-N-(3,3-dimethyl-1-(methylamino)-1-oxobutan-2-yl)-8-methyl-6,7,8,9-tetrahydro-5H-imidazo[1,5-a][1,4]diazepine-1-carboxamide]",,+,> 10000,
"CNC(=O)[C@@H](NC(=O)c1nc(-c2cc(C(F)(F)F)cc(C(F)(F)F)c2)n2c1CN(C)CCC2)C(C)(C)C [Compound 599, (S)-3-(3,5-bis(trifluoromethyl)phenyl)-N-(3,3-dimethyl-1-(methylamino)-1-oxobutan-2-yl)-8-methyl-6,7,8,9-tetrahydro-5H-imidazo[1,5-a][1,4]diazepine-1-carboxamide]",,,> 10000,EC50 (rat CB2 receptor (rCB2)): > 10000 nM
"CNC(=O)[C@@H](NC(=O)c1nc(-c2ccc(Br)cc2F)n2c1CN(C)CCC2)C(C)(C)C [Compound 600, (S)-3-(4-bromo-2-fluorophenyl)-N-(3,3-dimethyl-1-(methylamino)-1-oxobutan-2-yl)-8-methyl-6,7,8,9-tetrahydro-5H-imidazo[1,5-a][1,4]diazepine-1-carboxamide]",+,,,EC50 (rat CB2 receptor (rCB2)): > 10000 nM
"CNC(=O)[C@@H](NC(=O)c1nc(-c2c(F)cccc2F)n2c1CN(C)CCC2)C(C)(C)C [Compound 601, (S)-3-(2,6-difluorophenyl)-N-(3,3-dimethyl-1-(methylamino)-1-oxobutan-2-yl)-8-methyl-6,7,8,9-tetrahydro-5H-imidazo[1,5-a][1,4]diazepine-1-carboxamide]",+,+,,
CNC(=O)[C@@H]1CCCN1C(=O)c1nc(-c2ccccc2)n2c1CNCCC2 [Compound 602],−,,,EC50 (rat CB2 receptor (rCB2)): > 10000 nM
"CNC(=O)[C@@H]1CCCN1C(=O)c1nc(-c2ccccc2)n2c1CN(C)CCC2 [Compound 603, (S)-N-methyl-1-(8-methyl-3-phenyl-6,7,8,9-tetrahydro-5H-imidazo[1,5-a][1,4]diazepine-1-carbonyl)pyrrolidine-2-carboxamide]",,,> 10000,EC50 (rat CB2 receptor (rCB2)): > 10000 nM
"CNC(=O)C(NC(=O)c1nc(-c2ccccc2)n2c1CNCCC2)C(C)(C)F (centres unmarked) [Compound 604, N-(3-fluoro-3-methyl-1-(methylamino)-1-oxobutan-2-yl)-3-phenyl-6,7,8,9-tetrahydro-5H-imidazo[1,5-a][1,4]diazepine-1-carboxamide]",,+,> 10000,
"CNC(=O)C(NC(=O)c1nc(-c2ccccc2)n2c1CN(C)CCC2)C(C)(C)F (centres unmarked) [Compound 605, N-(3-fluoro-3-methyl-1-(methylamino)-1-oxobutan-2-yl)-8-methyl-3-phenyl-6,7,8,9-tetrahydro-5H-imidazo[1,5-a][1,4]diazepine-1-carboxamide]",,+,> 10000,
"CNC(=O)[C@@H](NC(=O)c1nc(-c2ccccc2)n2c1CNCCC2)C(C)(C)O [Compound 606, (S)-N-(3-hydroxy-3-methyl-1-(methylamino)-1-oxobutan-2-yl)-3-phenyl-6,7,8,9-tetrahydro-5H-imidazo[1,5-a][1,4]diazepine-1-carboxamide]",,+,> 10000,
"CNC(=O)[C@@H](NC(=O)c1nc(-c2ccccc2)n2c1CN(C)CCC2)C(C)(C)O [Compound 607, (S)-N-(3-hydroxy-3-methyl-1-(methylamino)-1-oxobutan-2-yl)-8-methyl-3-phenyl-6,7,8,9-tetrahydro-5H-imidazo[1,5-a][1,4]diazepine-1-carboxamide]",,+,> 10000,
